Assay results from US20040086607A1, “Food astringency evaluating method and astringency evaluating apparatus” (SAPPORO BREWERIES LIMITED, priority 2001, published 2004).

Legend:
Type in all cases: binding
gelatin [1] = test: change in frequency with gelatin sensor (quartz oscillator with gelatin immobilized on the electrode); settings: catechin 2 ppm and 6 ppm; for change in frequency: gelatin sensor in distilled water, up to 4 minutes after addition, quercetin and epicatechin 20 μM
Description: First, the gold electrode (diameter: 5 mm) of a sensor equipped with a quartz oscillator (Fragrance Sensor SF-105, product of Sogo Pharmaceutical Co., Ltd.) was immersed in 20 ml of a 1.2 N sodium hydroxide solution for 20 minutes, after which the electrode surface was washed with 500 ml of distilled water and immersed in 1.2 N dilute hydrochloric acid for 2 minutes. The electrode surface was then washed with distilled water and immersed in 12 N concentrated hydrochloric acid for 5 minutes, and the electrode was subsequently washed thoroughly with distilled water and dried at 100° C. for 20 minutes to obtain a quartz oscillator having hydroxyl groups arranged on the electrode surface.
After air-cooling the quartz oscillator, it was immersed in 0.3 ml of a 2% 3-aminopropyltriethoxysilane/acetone solution and allowed to stand at room temperature for 20 hours to introduce amino groups on to the electrode surface. The quartz oscillator was then subjected to ultrasonic washing treatment in 20 ml of acetone and dried at 70° C. for 90 minutes.
Next, 30 μl of 2.5% glutaraldehyde/20 mM phosphate buffer solution (pH 7.0) was placed on the amino group-introduced electrode surface, and the electrode was allowed to stand at room temperature for 2 hours. After then washing the electrode surface in 20 ml of 20 mM phosphate buffer solution and 20 ml of distilled water, it was mounted on an aqueous phase measuring sensor. […]
First, the sensor element measuring section of the gelatin sensor was immersed for 30 seconds in 100 ml of distilled water, and stabilization of frequency was confirmed. Next, 0.1 ml of a catechin/ethanol solution was added to the distilled water, and the change in frequency was measured up to 4 minutes after addition. […]
The change in frequency was also measured in the same manner as above except that quercetin/ethanol solutions and epicatechin/ethanol solutions were used instead of the catechin/ethanol solutions, and the astringency component concentration after addition to the distilled water was adjusted to 20 μM. […]

[2] = tested on: mouse proline-rich peptide; test: change in frequency with lipid membrane sensor, complex with mouse proline-rich peptide; settings: FIG. 9
Text: (§1) The electrode of a sensor equipped with a quartz oscillator (Fragrance Sensor SF-105, product of Sogo Pharmaceutical Co., Ltd.) was coated with a lipid membrane composed of dioctadecylammonium polystyrenesulfonic acid to obtain a lipid membrane sensor.
The obtained astringency evaluating apparatus was used for measurement of the change in frequency corresponding to adsorption on to the lipid membrane by complex between proline-rich peptide and tannic acid.
First, the sensor element measuring section of the lipid membrane sensor was immersed in a 25 mM acetate buffer solution (pH 4.3) dissolving 50, 100 or 150 mg/l of mouse proline-rich peptide (Sawady Technologies), and stabilization of frequency was confirmed. Next, 0.1 ml of tannic acid was added to each mouse proline-rich peptide/acetate buffer solution, and the change in frequency was measured up to 5 minutes after addition. For the measurement, the tannic acid concentration of the buffer solution immediately after tannic acid addition was 8 mg/l.

gelatin [3] = test: change in frequency with lipid membrane sensor, complex with gelatin
Description: as §1
The change in frequency was also measured in the same manner as above except that gelatin (Aldrich Chemical Company, Inc.) or bovine serum albumin (Wako Junyaku Kogyo) was used instead of the mouse proline-rich peptide, and tannic acid (concentration after addition to buffer solution [hereunder referred to simply as “concentration in buffer solution”]: 8 mg/l, and polyphenone 100 (concentration in buffer solution: 50 mg/l) were added. As comparative tests, the same measurement was conducted using sucrose (sweet component, concentration in buffer solution: 1.7 mM), quinine sulfate (bitter component, concentration in buffer solution: 0.27 μM), tartaric acid (acidic component, concentration in buffer solution: 14 μM), NaCl (salty component, concentration in buffer solution: 1.1 mM) and glutamic acid (acidic/savory component, concentration in buffer solution: 30 μM). Also, the change in frequency during 4 minutes after adding different components using bovine serum albumin is shown in FIG. 11. […]

bovine serum albumin = target: T1, bovine serum albumin (Bos taurus, UniProt P02769); test: change in frequency with lipid membrane sensor, complex with bovine serum albumin; settings: bovine serum albumin in acetate buffer, 4 minutes after adding, tannic acid 8 mg/l, polyphenone 100 50 mg/l, FIG. 11
T1 construct: purchased Wako Junyaku Kogyo
T1 sequence (P02769 25-607): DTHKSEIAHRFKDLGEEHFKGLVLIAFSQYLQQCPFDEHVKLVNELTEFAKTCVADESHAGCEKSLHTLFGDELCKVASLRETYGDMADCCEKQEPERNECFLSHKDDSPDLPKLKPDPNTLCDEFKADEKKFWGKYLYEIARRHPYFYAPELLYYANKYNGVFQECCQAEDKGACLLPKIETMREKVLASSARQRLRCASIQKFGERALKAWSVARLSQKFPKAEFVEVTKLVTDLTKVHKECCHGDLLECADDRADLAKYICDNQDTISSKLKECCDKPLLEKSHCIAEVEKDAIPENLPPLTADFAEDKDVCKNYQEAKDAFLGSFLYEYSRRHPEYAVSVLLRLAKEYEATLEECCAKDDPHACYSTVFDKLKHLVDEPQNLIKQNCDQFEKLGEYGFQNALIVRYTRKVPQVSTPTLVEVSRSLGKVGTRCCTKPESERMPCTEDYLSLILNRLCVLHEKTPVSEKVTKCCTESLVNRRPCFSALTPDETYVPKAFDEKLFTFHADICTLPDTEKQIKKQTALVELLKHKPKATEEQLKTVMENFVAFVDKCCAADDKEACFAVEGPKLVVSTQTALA
Description: as §1
The change in frequency was also measured in the same manner as above except that gelatin (Aldrich Chemical Company, Inc.) or bovine serum albumin (Wako Junyaku Kogyo) was used instead of the mouse proline-rich peptide, and tannic acid (concentration after addition to buffer solution [hereunder referred to simply as “concentration in buffer solution”]: 8 mg/l, and polyphenone 100 (concentration in buffer solution: 50 mg/l) were added. As comparative tests, the same measurement was conducted using sucrose (sweet component, concentration in buffer solution: 1.7 mM), quinine sulfate (bitter component, concentration in buffer solution: 0.27 μM), tartaric acid (acidic component, concentration in buffer solution: 14 μM), NaCl (salty component, concentration in buffer solution: 1.1 mM) and glutamic acid (acidic/savory component, concentration in buffer solution: 30 μM). Also, the change in frequency during 4 minutes after adding different components using bovine serum albumin is shown in FIG. 11.

change in frequency (bovine serum albumin)	Molecule	change in frequency (gelatin [1])	change in frequency versus catechin concentration (gelatin [1]; gelatin sensor, FIG. 5)	change in frequency ([2]; 25 mM acetate buffer pH 4.3, mouse proline-rich peptide 50, 100 or 150 mg/l, tannic acid 8 mg/l, up to 5 minutes)	change in frequency versus concentration ([2]; mouse proline-rich peptide)	correlation between tannic acid concentration and change in frequency (gelatin [3]; 10 mg/l gelatin/25 mM acetate buffer solution, FIG. 12)	change in frequency (gelatin [3]; gelatin in acetate buffer, 4 minutes after adding, tannic acid 8 mg/l, polyphenone 100 50 mg/l, FIG. 10)
	catechin	notable change in frequency	greater with increasing catechin concentration				
notable change in frequency	O=C(OC[C@H]1O[C@@H](OC(=O)c2cc(O)c(O)c(OC(=O)c3cc(O)c(O)c(O)c3)c2)[C@H](OC(=O)c2cc(O)c(O)c(OC(=O)c3cc(O)c(O)c(O)c3)c2)[C@@H](OC(=O)c2cc(O)c(O)c(OC(=O)c3cc(O)c(O)c(O)c3)c2)[C@@H]1OC(=O)c1cc(O)c(O)c(OC(=O)c2cc(O)c(O)c(O)c2)c1)c1cc(O)c(O)c(OC(=O)c2cc(O)c(O)c(O)c2)c1 [tannic acid]			notable change in frequency	greater with increasing tannic acid concentration	adequately satisfactory correlation	notable change in frequency
	O=c1c(O)c(-c2ccc(O)c(O)c2)oc2cc(O)cc(O)c12 [quercetin]	notable change in frequency					
